Patent US20230172920A1, “DOSING REGIMEN FOR TREATING A DISEASE MODULATED BY CSF-1R” (Novartis AG, priority 2020, published 2023)

Columns and labels:
[1] = system: CSF-1R; assay: Mouse CSF-1 levels in plasma as biomarker for CSF-1R inhibition (MC38 model); assay type: in vivo; conditions: BLZ945 4 days on/3 days off, vs vehicle
Method: In order to measure increase of CSF1 in the plasma as a biomarker for CSF-1R inhibition blood sampling was performed at baseline and 6 hours later on indicated days (FIG. 4).
Mouse CSF-1 levels in plasma. A. Changes in CSF-1 levels over time in the different treatment groups. B. Statistical analysis of CSF-1 levels in vehicle vs. BLZ945 4 days on/3 days off and in vehicle vs. BLZ945 4 days on/3 days off in combination with anti-PD-1. Statistical significance was calculated using a two-tailed, unpaired, non-parametric Mann-Whitney Test was performed to compare treatment to control groups.

[2] = system: microglia; assay: CNS microglia clearance in mice, Iba1/Aif-1 staining of cortex (RD-2019-00100); assay type: in vivo; conditions: for microglial depletion / microglial reduction: 5 consecutive days; for microglia brain repopulation: 169 mg/kg qd 5 days; for microglia depleted in the cortex: 169 mg/kg qd
Method: Several studies were performed to understand PK/PD relationships for CNS microglia clearance in mice. In the first study (RD-2019-00100) mice were treated once daily (qd) for between 1 and 5 consecutive days with a dose of 169 mg/kg BLZ945. Additionally, two dose groups received 169 mg/kg BLZ945 for 5 consecutive days followed by either 3 or 7 days of drug withdrawal (washout). […] Pharmacokinetic analysis was performed on blood and brain samples taken from each group at 3 hours after the final dose on the indicated necropsy day. […] Exposures dropped by more than 1000-fold following the washout period (FIG. 8 B).
FIG. 8: (A) Microglial depletion in the cortex, as assessed by Iba1/Aif-1 immunohistological staining at necropsy. Sections were analyzed for total number of microglia cell bodies per sample area. Values are group means±SD (n=3). (B) Exposure of BLZ945 in blood and brain 3 hours after the last dose on the day of necropsy. Values are group means (n=3).
In a follow-up study (RD-2019-00100), mice were treated with BLZ945 for 5 consecutive days with a range of doses from 7 to 169 mg/kg. The two lowest doses of 7 mg/kg and 20 mg/kg were ineffective for microglial depletion. […] Here the ratio of brain to blood exposures was approximately 30% at the four lowest doses and approximately 55% at the highest dose (FIG. 9 B).
FIG. 9: Dose-dependent reduction of microglia. (A) Mice were treated for 5 consecutive days with BLZ945 at the indicated doses. Samples were analyzed histologically by Iba1/Aif-1 staining and quantified for total microglia cell bodies per sample area. Data are group means±SD (n=3). (B) Exposure of BLZ945 in blood and brain following 5 consecutive days of dosing at multiple doses. Values are group means±SD (n=3).

[3] = system: SOD1G93A ALS mouse; assay: Body weight, grip strength and CMAP in the SOD1G93A ALS mouse, 8-week study (RD-2019-00092); assay type: in vivo
Method: BLZ945 was dosed over an 8-week period in a mouse model of ALS (in house data). BLZ945 was tested for efficacy in preventing or delaying disease progression in the SOD1G93A ALS mouse (RD-2019-00092). […] Normal body weight gain is also impaired in this model. These physiological impairments are considered as mechanistic readouts given that they best recapitulate the clinical disease phenotype (Turner et al 2013). Animals were dosed from 8 to 16 weeks of age with daily (q.d) doses of BLZ945 at either 65 mg/kg, 170 mg/kg, or 170 mg/kg delivered intermittently with a 7 day ON/7 day OFF regimen.
FIG. 12: The effect of BLZ945 on body weight change over the eight-week study period. Data are presented as the percentage of body weight change relative to the first dosing day. Values are group means ([…]). Statistical analysis was by mixed linear effect model for repeated measures. * p<0.05; ** p<0.01; **** p<0.0001.
Hind limb grip strength and compound muscle action potentials (CMAP), an assessment of neuromuscular integrity, were measured as mechanistic readouts. In grip strength measurements, SOD1 G93A mice lost muscle force continuously after the 8th week of age. […] This was intermediate to the vehicle-treated SOD1 G93A and NCAR controls (FIG. 13 A). […] However, CMAPs were still lower than those of NCAR animals from study week 4 onward.
FIG. 13: (A) The effect of BLZ945 on grip strength over the eight-week study period. Values are group means±SD (n=12-15). Statistical analysis was by mixed linear effect model for repeated measures. * p<0.05; ** p<0.01; *** p<0.001. (B) The effect of BLZ945 on TA muscle CMAP over the eight-week study period. Values are group means±SD (n=12-15). Statistical analysis was by mixed linear effect model for repeated measures. * […]; ** p<0.01; *** p<0.001.

[4] = system: microglia; assay: Microglial depletion in SOD1G93A mice with b.i.d. dosing (RD-2019-00111); assay type: in vivo, SOD1G93A mouse; conditions: 5 consecutive days
Method: Dosing was examined in the SOD1G93A mouse model of ALS, the most commonly used rodent ALS model (RD-2019-00111). Twice daily dosing (b.i.d.) was examined after 5 consecutive dosing days. Microglia were depleted in the cortex by approximately 25% and 75% following treatment with 50 mg/kg and 80 mg/kg BLZ945. BLZ945 dosed b.i.d. at 10 mg/kg was not effective (FIG. 10 A).
FIG. 10: BLZ945-mediated microglial depletion in the cortex, as assessed by Iba1/Aif-1 immunohistological staining (A) or in spinal cord by qPCR analysis (B) Values are group means±SD (n=3). (C and D) Exposure of BLZ945 in blood and CNS brain and spinal cord 3 hours after the final dose of the study.

Structure (SMILES): CNC(=O)c1cc(Oc2ccc3nc(N[C@@H]4CCCC[C@H]4O)sc3c2)ccn1 [BLZ945, 4-((2-(((1R,2R)-2-hydroxycyclohexyl)amino)benzo[d]thiazol-6-yl)oxy)-N-methylpicolinamide]
- CSF-1 plasma levels [1]: statistically significant increase
- microglial depletion ([2]; 7 mg/kg): ineffective
- microglial depletion ([2]; 20 mg/kg): ineffective
- microglial reduction ([2]; 60 mg/kg): 25%
- microglial reduction ([2]; 100 mg/kg): 60%
- microglia brain repopulation ([2]; then 3 days washout): ~80 % of vehicle
- microglia brain repopulation ([2]; then 7 days washout): complete repopulation
- microglia depleted in the cortex ([2]; day 2): approximately 50%
- microglia depleted in the cortex ([2]; day 5): approximately 90%
- microglial reduction ([2]; 169 mg/kg): 100%
- tibialis anterior muscle CMAP ([3]; 65 mg/kg): significantly higher CMAPs than untreated controls until week 6
- body weight gain at end of study ([3]; 65 mg/kg and 170 mg/kg 7 days on/7 days off groups, NCAR approx. 16%, vehicle approx. 7%): approximately 12%
- hind limb grip strength ([3]; 65 mg/kg, vs vehicle-treated SOD1 G93A controls, up to week 6 of dosing): significantly higher grip strength
- body weight gain ([3]; 170 mg/kg continuously, 8 weeks): constant weight gain at the same rate as NCAR mice
- tibialis anterior muscle CMAP ([3]; 170 mg/kg, continuous or intermittent dosing): significantly reduced decline in CMAPs throughout the study period
- hind limb grip strength ([3]; 170 mg/kg, continuously or intermittently, vs vehicle-treated SOD1 G93A): maintained significantly greater grip force throughout the study period
- microglia depletion in the cortex ([4]; 10 mg/kg b.i.d.): not effective
- reduction of microglial markers in spinal cord (qPCR) ([4]; 10 mg/kg b.i.d.): small but non-significant effect
- microglia depleted in spinal cord (qPCR of microglial markers) ([4]; 50 mg/kg b.i.d.): approximately 55%
- microglia depleted in the cortex ([4]; 50 mg/kg b.i.d.): approximately 25%
- microglia depleted in spinal cord (qPCR of microglial markers) ([4]; 80 mg/kg b.i.d.): ~85%
- microglia depleted in the cortex ([4]; 80 mg/kg b.i.d.): ~75%
